Assay [1] addresses T1, Prostaglandin G/H synthase 2 (Homo sapiens) (UniProt P35354).
T1 sequence (whole entry): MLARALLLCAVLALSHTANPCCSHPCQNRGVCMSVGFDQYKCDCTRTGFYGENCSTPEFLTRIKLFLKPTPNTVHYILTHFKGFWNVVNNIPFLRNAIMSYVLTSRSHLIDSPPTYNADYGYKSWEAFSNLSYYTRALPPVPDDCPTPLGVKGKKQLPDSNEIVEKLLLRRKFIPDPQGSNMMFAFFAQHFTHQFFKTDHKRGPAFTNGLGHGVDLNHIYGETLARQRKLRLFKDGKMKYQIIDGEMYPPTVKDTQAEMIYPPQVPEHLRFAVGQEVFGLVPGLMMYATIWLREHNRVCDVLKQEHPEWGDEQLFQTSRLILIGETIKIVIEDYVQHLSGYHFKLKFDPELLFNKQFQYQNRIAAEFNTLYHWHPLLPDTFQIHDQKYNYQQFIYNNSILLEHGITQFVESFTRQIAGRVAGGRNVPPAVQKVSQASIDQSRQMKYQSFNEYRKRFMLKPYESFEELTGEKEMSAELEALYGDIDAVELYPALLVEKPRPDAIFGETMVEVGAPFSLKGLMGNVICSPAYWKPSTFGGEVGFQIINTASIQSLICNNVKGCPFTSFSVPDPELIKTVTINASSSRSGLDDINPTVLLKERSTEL
Kind of assay: Inhibition of human recombinant COX2 expressed in Sf21 cells using arachidonic acid as substrate at 10 uM preincubated for 15 mins before arachidonic acid addition measured after 5 mins.

Assay [2] concerns the target Estrogen receptor beta (Homo sapiens) (UniProt Q92731). Kind of assay: Displacement of [3H]-estradiol from human recombinant ERbeta expressed in Sf21 cells at 10 uM after 2 hrs. (Displacement assays read how much labelled ligand stays bound in the presence of the test substance.)
In assay [3] the target is T2, Estrogen receptor (Homo sapiens) (UniProt P03372).
T2 sequence (whole entry): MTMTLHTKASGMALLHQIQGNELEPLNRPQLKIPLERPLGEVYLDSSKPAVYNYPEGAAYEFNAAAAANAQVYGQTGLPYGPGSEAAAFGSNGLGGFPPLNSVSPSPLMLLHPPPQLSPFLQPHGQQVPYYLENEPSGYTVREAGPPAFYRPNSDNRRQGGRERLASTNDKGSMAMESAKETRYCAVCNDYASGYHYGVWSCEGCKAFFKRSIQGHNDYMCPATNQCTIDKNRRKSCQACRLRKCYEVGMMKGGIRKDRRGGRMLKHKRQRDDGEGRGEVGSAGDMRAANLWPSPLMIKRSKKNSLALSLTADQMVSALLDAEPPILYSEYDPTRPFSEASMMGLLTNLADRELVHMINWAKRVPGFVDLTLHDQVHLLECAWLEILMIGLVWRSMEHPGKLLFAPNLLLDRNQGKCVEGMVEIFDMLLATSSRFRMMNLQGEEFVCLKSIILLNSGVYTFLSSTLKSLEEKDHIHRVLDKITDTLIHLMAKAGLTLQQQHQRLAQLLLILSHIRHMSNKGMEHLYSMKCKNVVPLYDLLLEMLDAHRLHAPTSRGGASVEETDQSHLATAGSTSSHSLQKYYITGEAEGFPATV
Kind of assay: Displacement of [3H]-estradiol from human recombinant ERalpha expressed in Sf21 cells at 10 uM after 2 hrs.

Assay [4] concerns the target T3, Prostaglandin G/H synthase 1 (Homo sapiens, UniProt P23219). Kind of assay: Inhibition of human platelet COX1 using arachidonic acid as substrate at 10 uM preincubated for 15 mins before arachidonic acid addition measured after 15 mins.
Assay [5] has as its target T4, Prostaglandin G/H synthase 2 (Homo sapiens, UniProt P35354).
T4 sequence (P35354 whole entry): T1 sequence (whole entry)
In words: Inhibition of COX2.

For assay [6], the target named is T3, Prostaglandin G/H synthase 1. Kind of assay: Inhibition of COX1.

Sequence of Estrogen receptor beta (Homo sapiens) (Q92731 whole entry): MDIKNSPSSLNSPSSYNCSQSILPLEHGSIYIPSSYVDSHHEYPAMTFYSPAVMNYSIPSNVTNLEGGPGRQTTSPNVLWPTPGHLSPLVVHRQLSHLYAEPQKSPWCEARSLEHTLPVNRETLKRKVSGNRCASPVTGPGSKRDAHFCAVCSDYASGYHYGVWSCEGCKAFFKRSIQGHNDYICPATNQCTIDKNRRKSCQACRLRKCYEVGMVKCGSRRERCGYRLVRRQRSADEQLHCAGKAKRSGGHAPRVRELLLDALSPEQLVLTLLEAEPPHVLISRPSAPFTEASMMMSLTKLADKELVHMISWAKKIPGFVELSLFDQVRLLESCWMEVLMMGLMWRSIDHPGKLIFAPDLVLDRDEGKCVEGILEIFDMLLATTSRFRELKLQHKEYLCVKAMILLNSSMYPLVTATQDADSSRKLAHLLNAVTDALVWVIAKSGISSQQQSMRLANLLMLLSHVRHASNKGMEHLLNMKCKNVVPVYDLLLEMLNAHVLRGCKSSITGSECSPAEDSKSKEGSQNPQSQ
T3 sequence (P23219 whole entry): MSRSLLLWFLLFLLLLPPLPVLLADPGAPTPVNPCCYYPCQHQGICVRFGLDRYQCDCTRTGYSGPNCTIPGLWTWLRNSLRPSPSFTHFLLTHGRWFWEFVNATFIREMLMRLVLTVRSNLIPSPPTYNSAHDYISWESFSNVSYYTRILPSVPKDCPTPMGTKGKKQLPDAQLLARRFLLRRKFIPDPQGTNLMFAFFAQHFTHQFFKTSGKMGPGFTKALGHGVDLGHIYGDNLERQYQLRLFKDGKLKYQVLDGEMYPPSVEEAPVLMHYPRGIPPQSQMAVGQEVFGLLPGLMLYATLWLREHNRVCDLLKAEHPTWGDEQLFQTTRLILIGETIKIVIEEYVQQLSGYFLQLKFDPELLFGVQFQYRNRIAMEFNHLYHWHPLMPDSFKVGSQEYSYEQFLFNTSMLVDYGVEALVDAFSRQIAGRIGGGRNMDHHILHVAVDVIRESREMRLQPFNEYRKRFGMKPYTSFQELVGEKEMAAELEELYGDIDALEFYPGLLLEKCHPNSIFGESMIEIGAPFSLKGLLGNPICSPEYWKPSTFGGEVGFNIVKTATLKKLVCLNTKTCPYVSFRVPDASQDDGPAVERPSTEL

In general, inhibition refers to the change of the read-out against control, counted positive when it falls. As for `CCCCC(=C(c1ccccc1)c1ccccc1)c1ccc([S+](C)(=N)[O-])cc1` (stereo not given), the inhibition in assay [1] turned out to be 17%; in assay [2] it was 80%; in assay [3], 91%; in assay [4], 12%.

For the compound `CC(=C(c1ccccc1)c1ccccc1)c1ccc([S+](C)(=N)[O-])cc1` (stereo not given), the inhibition in assay [2] worked out at 53%; in assay [3], 77%; in assay [4], 23%.

What is called IC50 is the midpoint of a concentration-inhibition curve. A lower IC50 goes with higher potency. With `CCCCC(=C(c1ccccc1)c1ccccc1)c1ccc(S(C)(=O)=O)cc1`, the IC50 in assay [5] is 14 nM; in assay [6], over 100000 nM. For the same compound, the inhibition in assay [2] was 77%; in assay [3], -6%.

As for `CCCCC(=C(c1ccccc1)c1ccccc1)c1ccc([S+](C)([O-])=NC#N)cc1` (stereo not given), the inhibition in assay [1] is 10%; in assay [2] it was 60%; in assay [3], 54%; in assay [4] it was 5%.

The record behind these values is ChEMBL document CHEMBL2169818, “Syntheses and biological activities of sulfoximine-based acyclic triaryl olefins” (Bioorg Med Chem Lett, 2012).
